Consider one molecule from patent US8604206B2, “Compositions for preventing and/or treating degenerative disorders of the central nervous system” (Amicus Therapeutics, Inc., priority 2009, dated 2013).

The target in series [1] is GCase (Mus musculus, UniProt P17439). The experiment in a line: GCase enhancement in tissues of orally dosed mice. The settings on record: 9 doses over 2 weeks. In kind it is in vivo. The protocol: The ability of orally administered test compounds ((3R,4R,5S)-5-(difluoromethyl)piperidine-3,4-diol, (3R,4R,5S)-5-(1-fluoroethyl)piperidine-3,4-diol, (3R,4R,5S)-5-((R)-1-fluoropropyl)piperidine-3,4-diol hydrochloride, or (3R,4R,5S)-5-benzylpiperidine-3,4-diol) to elevate GCase levels was assessed in mice. For this purpose, 8-week old wild-type male mice (C57BL/6) were administered a […] p.o. (gavage) dose of a compound of the present invention (i.e., (3R,4R,5S)-5-(difluoromethyl)piperidine-3,4-diol, (3R,4R,5S)-5-(1-fluoroethyl)piperidine-3,4-diol, (3R,4R,5S)-5-((R)-1-fluoropropyl)piperidine-3,4-diol hydrochloride, or (3R,4R,5S)-5-benzylpiperidine-3,4-diol). The dosing solutions were prepared in water. Compounds were administered over 2 weeks as follows: week 1, Mon-Fri (On), Sat-Sun (Off); week 2, Mon-Thu (On); necropsy on Friday. Thus, a total of 9 doses (dosing solutions prepared fresh every day) were given to each mouse, with a 24-hour washout between the last dose and necropsy.
Plasma was collected by spinning blood at 2700 g for 10 minutes at 4° C. Liver, spleen, lung, and brain tissues were removed, washed in cold PBS, blotted dry, flash frozen on dry ice, and stored at −80° C. until analysis. GCase levels were measured by homogenizing approximately 50 mg tissue in 500 μL McIlvane (MI) buffer (100 mM sodium citrate, 200 mM sodium phosphate dibasic, 0.25% sodium taurocholate, and 0.1% Triton X-100, pH 5.2) at pH 5.2 for 3-5 seconds on ice with a micro homogenizer. Homogenates were then incubated at room temperature without and with 2.5 mM conduritol-B-epoxide (CBE) for 30 min. Finally, 3.7 mM 4-methylumbeliferryl-β-glucoside (4-MUG) substrate was added and incubated at 37° C. for 60 min. […] Fluorescence was measured on a plate reader for 1 sec/well using 355 nm excitation and 460 nm emission. Total protein was determined in lysates using the MicroBCA kit according to the manufacturer's instructions. A 4-methylumbelliferone (4-MU) standard curve ranging from 1.0 nM to 50 μM was run in parallel for conversion of raw fluorescence data to absolute GCase activity (in the presence and absence of CBE) and expressed as nanomoles of 4-MU released per milligram of protein per hour (nmol/mg protein/hr). GCase levels and protein levels were calculated using Microsoft Excel (Redmond, Wash.) and GraphPad Prism version 4.02.

A short description of the next series: Rat pharmacokinetics. It counts as in vivo. The settings on record: listed as (3R,4R,5S)-5-(1-fluoroethyl)piperidine-3,4-diol-HCl. The protocol:
Pharmacokinetic (PK) data was obtained in rats to assess the bioavailability of test compound. In particular, the following PK parameters were calculated: bioavailability as measured by area under the Concentration/Time curve (AUC), fraction of dose available (% F; further defined below), clearance (CL), volume of distribution (Vd), and half-life (t½). […] Three rats were used per dosing group. Blood was collected over a 24-hr period. The time points for blood collection after intravenous administration were: 0, 2.5, 5, 10, 15, 30, 45 min, 1, 2, 4, 8, 12, and 24 hrs; time points for blood collection after p.o. administrations were: 0, 5, 15, 30, 45 min, 1, 2, 3, 4, 8, 12, and 24 hrs. Plasma samples were analyzed for compound levels by LC-MS/MS at PPD. Raw data was analyzed by non-compartmental analysis in Win-nonLin to calculate VD, % F, CL, and t1/2.

The next series addresses lysosomal GCase (Homo sapiens (Human), UniProt P04062). The experiment in a line: In situ lysosomal GCase inhibition and washout assay in fibroblasts from a normal subject. In kind it is cell-based. The protocol:
The effect of the novel compounds of the present invention on lysosomal GCase activity was assayed in situ using fibroblasts established from a normal subject. Cells seeded in 48-well plates were incubated with the indicated concentrations of compound for 16-24 hours. For the dose-response assays, cells were incubated with the in situ substrate 5-(pentafluorobenzoylamino)fluorescein di-β-D-glucopyranoside (PFBFDβGlu) for 1 hour and subsequently lysed to determine the extent of substrate hydrolysis in the presence of compound. […] Inhibition was determined as the ratio of activity in the presence of compound to that in the absence of compound. […] Cells were washed extensively and incubated in drug-free medium to allow net compound efflux from cells. Cells were then tested for lysosomal GCase activity at 2 hour intervals over a total period of 8 hours following compound removal. The increase in activity over time was fitted with a single exponential function to determine the compound's washout time.

A short description of series [2]: Blood brain barrier penetration, plasma and brain levels after oral administration. It counts as in vivo, mouse. The note with it: mice, single 30 mg/kg (free base equivalent) p.o. The protocol:
For this purpose, 8-week old wild-type male mice (C57BL/6) were administered a single 30 mg/kg (free base equivalent) p.o. dose of reference or test compound by gavage (n=3 mice per time point). Dosing solutions were prepared in water. After dosing, mice were euthanized with CO2 at the following time points: 0-, 0.5-, 1-, and 4-hour post-dose. […] Similarly, brains were collected from each mouse. Plasma was derived by spinning whole blood at 2,700×g for 10 minutes at 4° C. followed by storage on dry ice. Whole brains were washed in cold PBS to remove contaminating blood, blotted dry, flash frozen on dry ice, and ultimately stored at −80° C. until analysis. To prepare brain samples for analysis, 50-100 mg of tissue was homogenized in […] of water/mg tissue. Samples were then clarified by centrifugation. Next, 25 μl of the brain homogenate supernatant or 25 μl of plasma were combined with 25 μl of acetonitrile:water (95/5). […] Samples were again clarified by centrifugation and 75 μl of the supernatant was combined with 75 μl of acetonitrile. Samples were then analyzed for compound levels by LC-MS/MS at PPD Inc. (3230 Deming Way, Middleton, Wis. 53562). In brief, a Thermo Betasil, Silica-100, 50×3 mm, 5μ column equilibrated with a mixture of mobile phase consisting of 5 mM ammonium formate and 0.05% formic acid in (A) 95:5 acetonitrile:water or (B) 70:20:10 methanol:water:acetonitrile was employed. Between 20 and 30 μl sample was injected for analysis. For calculating drug concentrations, raw data for plasma (ng/mL) and brain (ng/g) was converted to nM using the molecular weight of respective compounds and assuming 1 g of tissue is equivalent to 1 mL volume. Concentration as a function of time was plotted in GraphPad Prism version 4.02.

For series [3], the target named is GCase (Homo sapiens (Human), UniProt P04062). The experiment in a line: GCase activity enhancement (EC50, Emax) of Table 2B. It counts as cell-based. The note with it: compared to reference compound IFG-tartrate.
GCase (Homo sapiens (Human), UniProt P04062), sequence (P04062 40-536): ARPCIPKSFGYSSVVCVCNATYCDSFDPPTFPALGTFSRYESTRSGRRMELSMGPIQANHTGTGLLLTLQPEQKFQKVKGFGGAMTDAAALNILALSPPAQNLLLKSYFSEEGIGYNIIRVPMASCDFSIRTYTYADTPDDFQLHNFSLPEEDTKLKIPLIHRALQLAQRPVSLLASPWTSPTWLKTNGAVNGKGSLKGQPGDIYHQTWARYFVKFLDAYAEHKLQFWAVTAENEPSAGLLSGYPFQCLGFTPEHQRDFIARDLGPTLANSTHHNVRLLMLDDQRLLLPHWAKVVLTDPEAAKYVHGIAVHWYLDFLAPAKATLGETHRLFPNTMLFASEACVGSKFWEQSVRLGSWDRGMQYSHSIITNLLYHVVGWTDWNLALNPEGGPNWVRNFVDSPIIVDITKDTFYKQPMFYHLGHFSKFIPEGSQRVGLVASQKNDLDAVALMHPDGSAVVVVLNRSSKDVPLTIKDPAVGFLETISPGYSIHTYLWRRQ

GCase (Mus musculus, UniProt P17439), sequence (P17439 20-515 limits assumed): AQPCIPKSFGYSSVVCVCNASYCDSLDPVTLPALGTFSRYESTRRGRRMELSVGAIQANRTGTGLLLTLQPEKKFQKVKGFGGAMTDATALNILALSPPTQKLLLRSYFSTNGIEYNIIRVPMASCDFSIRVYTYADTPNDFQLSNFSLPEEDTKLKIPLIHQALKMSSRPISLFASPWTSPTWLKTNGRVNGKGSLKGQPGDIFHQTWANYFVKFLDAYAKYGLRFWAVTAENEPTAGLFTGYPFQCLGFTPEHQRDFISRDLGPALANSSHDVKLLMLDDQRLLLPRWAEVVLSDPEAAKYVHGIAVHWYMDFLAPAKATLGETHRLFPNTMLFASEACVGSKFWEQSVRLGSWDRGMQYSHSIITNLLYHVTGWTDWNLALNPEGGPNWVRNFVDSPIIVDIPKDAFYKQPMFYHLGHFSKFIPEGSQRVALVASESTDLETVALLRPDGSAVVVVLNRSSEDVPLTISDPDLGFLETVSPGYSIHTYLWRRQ
lysosomal GCase, sequence (P04062 40-536): as the sequence (P04062 40-536) above

With `CC(F)[C@H]1CNC[C@@H](O)[C@@H]1O` (single isomer, unassigned), on GCase [1] (brain, 10 mg/kg FBE p.o., 24-hour washout), the “GCase increase (fold)” value is listed as 1.5 fold. Further, the “GCase enhancement in brain and spleen” value on GCase [1] (mice, p.o.) is “significant GCase enhancement in brain and spleen”. Also, in the series “Rat pharmacokinetics” (IV, 3 mg/kg free base), the “AUClast (hr*ng/ml), AUC0-24 hr” value came out at 1370 ± 109 ng·h/mL; the “CL” value is 36.47 ± 2.88 mL/min/kg; the Cmax (as a rule, the maximum level reached in the sampled fluid or tissue) turned out to be 2427 ± 192 ng/mL; the “VD” value stood at 6.304 ± 0.927 L/kg. The “t1/2” value in the series “Rat pharmacokinetics” (IV, 3 mg/kg free base) amounted to 2.06 ± 0.47 h. In addition, in the series “Rat pharmacokinetics” (PO, 10 mg/kg free base), the “AUClast (hr*ng/ml), AUC0-24 hr” value was found to be 4251 ± 88 ng·h/mL and the “t1/2” value was found to be 3.0 ± 0.22 h. In “Rat pharmacokinetics” (PO, 30 mg/kg free base), the “AUClast (hr*ng/ml), AUC0-24 hr” value worked out at 14229 ± 127 ng·h/mL and the “Cmax” value is listed as 4680 ± 369 ng/mL. In the series “Rat pharmacokinetics” (PO, 100 mg/kg free base), the “AUClast (hr*ng/ml), AUC0-24 hr” value is 50946 ± 713 ng·h/mL; the “Cmax” value was 15733 ± 622 ng/mL; the “t1/2” value came to 2.4 ± 0.16 h. For the same molecule, the “inhibition of GCase activity” value against lysosomal GCase was “inhibited GCase activity”. At lysosomal GCase (compared to reference compound IFG-tartrate), the “in situ washout from the lysosomal compartment compared to IFG-tartrate” value is listed as “considerably faster than reference compound IFG-tartrate”. Moreover, in series [2], the “blood brain barrier crossing compared to IFG-tartrate” value is listed as “crossed the blood brain barrier more readily as compared to IFG-tartrate” and the “levels detected in brain compared to IFG-tartrate” value is reported as “higher levels”. On GCase [3], the “increase in GCase activity compared to IFG-tartrate” value is reported as “enhanced enzyme activity to the same maximum level as reference compound IFG-tartrate at much lower concentration”.
